Entries after “also recorded” stand apart in the source; their conditions may differ.
Experiments:
Hepa 1-6 cells = experiment: One- and 3-day cytotoxicity assay; format: cell-based, mouse; details: Hepa 1-6, one- and 3-day
Protocol: (§1) After the plated had been incubated for 24 or 72 h at 37 °C, the cytotoxicity was determined using a CellTiter-Glo luminescent cell viability assay (Promega). […] The final DMSO concentration was 0.5% for all wells.

[1] = tested on: panel of seven other human nuclear receptors; experiment: GeneBLAzer nuclear receptor panel, agonistic and antagonistic modes; format: cell-based
Protocol: For the GeneBLAzer NR-UAS-bla HEK 293 T assays for VDR, RXRα, RXRβ, FXR, GR, LXRα, LXRβ and PPARγ, GeneBLAzer panel nuclear receptor cells, the LiveBLAzer FRET-B/G Loading Kit with CCF4-AM, and all tissue culture reagents were purchased from Thermo Fisher Scientific. The assays were performed in accordance with the manufacturer’s instructions, with minor modifications as reported previously[48]–[50]. Briefly, positive control (as described for each assay), DMSO, and dilutions of test chemicals either alone (for agonistic assays) or in combination with an approximately EC80 concentration of a specific agonist (for antagonistic assays) were incubated with an optimized number of cells for each assay in wells of black 384-well tissue culture-treated clear-bottom plates with 30 µl of the respective assay medium in a 37 °C cell-culture incubator. A group of wells containing assay medium and DMSO, but no cells, served as a background control. The final DMSO concentration was 0.5% for all wells. After 24 h, 6 µl per well of loading solution was added, and this step was followed by an optimal period of incubation at room temperature in the dark before the fluorescent emission at 460 and 535 nm (using excitation at 400 nm) was measured with an EnVision plate reader. […]

INSRR = target: T1, INSRR (Homo sapiens, UniProt P14616); experiment: KINOMEscan kinase profiling; format: binding; details: read-out: %Inhibition by 10 μM SPA70
T1 construct: purchased DiscoverX (Ambit Biosciences) KINOMEscan
Protocol: (§2) Kinase inhibition profiling assays. The kinase inhibition profiling assay (KINOMEscan) was performed by Ambit Biosciences, now part of DiscoveryX (Fremont, CA) in accordance with the […]
(§3) published protocol20, 21. […] If the inhibition of a kinase was greater […]
(§4) dilutions) starting from 30 µM.

INSR = target: T2, INSR (Homo sapiens, UniProt P06213); experiment: KINOMEscan kinase profiling; format: binding; details: read-out: %Inhibition by 10 μM SPA70
T2 construct: purchased DiscoverX (Ambit Biosciences) KINOMEscan
Protocol: as §2, §3, §4

CSK = target: T3, CSK (Homo sapiens, UniProt P41240); experiment: KINOMEscan kinase profiling; format: binding
T3 construct: purchased DiscoverX (Ambit Biosciences) KINOMEscan
Protocol: as §2, §3, §4

CAMK2D = target: T4, CAMK2D (Homo sapiens, UniProt Q13557); experiment: KINOMEscan kinase profiling; format: binding; details: read-out: %Inhibition by 10 μM SPA70
T4 construct: purchased DiscoverX (Ambit Biosciences) KINOMEscan
Protocol: as §2, §3, §4

[2] = target: T5, JAK2(JH1domain-catalytic) (Homo sapiens, UniProt O60674); experiment: KINOMEscan kinase profiling; format: binding
T5 construct: JAK2(JH1domain-catalytic); purchased DiscoverX (Ambit Biosciences) KINOMEscan
Protocol: as §2, §3, §4

ASK2 = target: T6, ASK2 (Homo sapiens, UniProt O95382); experiment: KINOMEscan kinase profiling; format: binding; details: read-out: %Inhibition by 10 μM SPA70
T6 construct: purchased DiscoverX (Ambit Biosciences) KINOMEscan
Protocol: as §2, §3, §4

SIK = target: T7, SIK (Homo sapiens, UniProt P57059); experiment: KINOMEscan kinase profiling; format: binding
T7 construct: purchased DiscoverX (Ambit Biosciences) KINOMEscan
Protocol: as §2, §3, §4

PIP5K2C = target: T8, PIP5K2C (Homo sapiens, UniProt Q8TBX8); experiment: KINOMEscan kinase profiling; format: binding; details: read-out: %Inhibition by 10 μM SPA70
T8 construct: purchased DiscoverX (Ambit Biosciences) KINOMEscan
Protocol: as §2, §3, §4

CDK4-cyclinD1 = target: T9, CDK4-cyclinD1 (Homo sapiens, UniProt P11802); experiment: KINOMEscan kinase profiling; format: binding; details: read-out: %Inhibition by 10 μM SPA70
T9 construct: purchased DiscoverX (Ambit Biosciences) KINOMEscan
Protocol: as §2, §3, §4

MELK = target: T10, MELK (Homo sapiens, UniProt Q14680); experiment: KINOMEscan kinase profiling; format: binding; details: read-out: %Inhibition by 10 μM SPA70
T10 construct: purchased DiscoverX (Ambit Biosciences) KINOMEscan
Protocol: as §2, §3, §4

[3] = target: T11, RPS6KA5(Kin.Dom.1-N-terminal) (Homo sapiens, UniProt O75582); experiment: KINOMEscan kinase profiling; format: binding; details: read-out: %Inhibition by 10 μM SPA70
T11 construct: RPS6KA5(Kin.Dom.1-N-terminal); purchased DiscoverX (Ambit Biosciences) KINOMEscan
Protocol: as §2, §3, §4

TAOK3 = target: T12, TAOK3 (Homo sapiens, UniProt Q9H2K8); experiment: KINOMEscan kinase profiling; format: binding; details: read-out: %Inhibition by 10 μM SPA70
T12 construct: purchased DiscoverX (Ambit Biosciences) KINOMEscan
Protocol: as §2, §3, §4

[4] = target: T13, JAK1(JH1domain-catalytic) (Homo sapiens, UniProt P23458); experiment: KINOMEscan kinase profiling; format: binding
T13 construct: JAK1(JH1domain-catalytic); purchased DiscoverX (Ambit Biosciences) KINOMEscan
Protocol: as §2, §3, §4

RIOK3 = target: T14, RIOK3 (Homo sapiens, UniProt O14730); experiment: KINOMEscan kinase profiling; format: binding; details: read-out: %Inhibition by 10 μM SPA70
T14 construct: purchased DiscoverX (Ambit Biosciences) KINOMEscan
Protocol: as §2, §3, §4

ANKK1 = target: T15, ANKK1 (Homo sapiens, UniProt Q8NFD2); experiment: KINOMEscan kinase profiling; format: binding; details: read-out: %Inhibition by 10 μM SPA70
T15 construct: purchased DiscoverX (Ambit Biosciences) KINOMEscan
Protocol: as §2, §3, §4

RAF1 = target: T16, RAF1 (Homo sapiens, UniProt P04049); experiment: KINOMEscan kinase profiling; format: binding; details: read-out: %Inhibition by 10 μM SPA70
T16 construct: purchased DiscoverX (Ambit Biosciences) KINOMEscan
Protocol: as §2, §3, §4

AKT1 = target: T17, AKT1 (Homo sapiens, UniProt P31749); experiment: KINOMEscan kinase profiling; format: binding; details: read-out: %Inhibition by 10 μM SPA70
T17 construct: purchased DiscoverX (Ambit Biosciences) KINOMEscan
Protocol: as §2, §3, §4

C57BL/6 mice = experiment: Animal acute toxicity study; details: oral 500 mg kg−1, days 13 and 15
Protocol: In the animal acute toxicity studies, C57BL/6 mice were randomly apportioned among six groups, with five mice per group. […] After dosing, mice were monitored daily for 15 days for morbidity and mortality. Signs of morbidity included ruffled fur, hunching, tremors, lethargy, hyperactivity and diarrhea, in addition to a reduction in weight gain. The body weight of each mouse was recorded before and after treatment. At day 15, all mice were killed and a terminal blood sample was collected for examination of clinical chemistries (e.g., renal, liver and hematopoietic function). Histopathological examination of the major organs was performed with hematoxylin and eosin staining.

LS1034 cells = experiment: CellTiter-Glo cytotoxicity assay; details: 10 µM SPA70
Protocol: For the LS180, SNU-C4 and LS1034 cytotoxicity assays, cells were seeded in a 96-well plate (Corning) at 4000 cells per well. […] Cell viability was assessed using the CellTiter-Glo assay.

[5] = tested on: hPXR transcriptional target genes; experiment: DNA microarray analysis in primary human hepatocytes; format: cell-based; details: 2.5 μM SPA70, 48 h
Source text: In each case, total RNA was extracted using a Qiagen RNeasy Mini Kit and amplified and labeled by using an One-Color Low Input Quick Amp Labeling Kit (Agilent, Santa Clara, CA, catalog no. 5190-2305), after which it was hybridized to the SurePrint G3 Human GE 8 × 60 K microarray (Agilent-028004), which contains 42,545 unique probes targeting 27,958 Entrez genes. Microarrays were scanned with an Agilent array scanner (G2565CA) at 3-μm resolution. Microarray data were extracted by Agilent Feature Extraction software (v10.5.1.1). Quantile normalization of log-transformed, background-subtracted signal intensity was performed for all samples. This was followed by comparisons between sets of replicates from different experimental groups. Student’s t-test was used to determine the statistical significance of the difference between the paired samples from three replicates of each experiment. […] The data processing and PCA analysis were performed using Partek software (St. Louis, MO)[52]. The GEO accession number for the microarray analysis is GSE90122.

hCAR = target: T18, hCAR (Homo sapiens, UniProt Q14994); experiment: hCAR transactivation assay, inverse agonistic mode; format: cell-based
T18 construct: expressed in transfected cells; host or cells: HepG2
Protocol: The hCAR transactivation assays were performed as described previously[48]. […] The relative luciferase activity was determined by normalizing the firefly luciferase signal to the Renilla luciferase signal and was used to represent the ‘relative activity of CAR’. The final DMSO concentration was 0.4% in all assays.

HepG2 cells = experiment: One- and 3-day cytotoxicity assay; format: cell-based, human; details: HepG2, one- and 3-day
Protocol: as §1

HEK293 cells = experiment: One- and 3-day cytotoxicity assay; format: cell-based, human; details: HEK293, one- and 3-day
Protocol: as §1

T18 sequence (Q14994 whole entry): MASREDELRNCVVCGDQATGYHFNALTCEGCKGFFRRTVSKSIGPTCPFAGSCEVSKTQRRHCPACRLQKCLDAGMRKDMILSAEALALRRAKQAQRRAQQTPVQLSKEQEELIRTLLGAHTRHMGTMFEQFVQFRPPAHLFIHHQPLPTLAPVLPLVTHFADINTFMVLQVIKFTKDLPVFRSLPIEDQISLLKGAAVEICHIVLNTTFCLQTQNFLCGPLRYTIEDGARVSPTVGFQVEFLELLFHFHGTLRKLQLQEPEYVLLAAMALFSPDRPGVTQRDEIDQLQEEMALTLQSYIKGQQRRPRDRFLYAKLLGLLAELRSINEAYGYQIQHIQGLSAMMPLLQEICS
T6 sequence (O95382 whole entry): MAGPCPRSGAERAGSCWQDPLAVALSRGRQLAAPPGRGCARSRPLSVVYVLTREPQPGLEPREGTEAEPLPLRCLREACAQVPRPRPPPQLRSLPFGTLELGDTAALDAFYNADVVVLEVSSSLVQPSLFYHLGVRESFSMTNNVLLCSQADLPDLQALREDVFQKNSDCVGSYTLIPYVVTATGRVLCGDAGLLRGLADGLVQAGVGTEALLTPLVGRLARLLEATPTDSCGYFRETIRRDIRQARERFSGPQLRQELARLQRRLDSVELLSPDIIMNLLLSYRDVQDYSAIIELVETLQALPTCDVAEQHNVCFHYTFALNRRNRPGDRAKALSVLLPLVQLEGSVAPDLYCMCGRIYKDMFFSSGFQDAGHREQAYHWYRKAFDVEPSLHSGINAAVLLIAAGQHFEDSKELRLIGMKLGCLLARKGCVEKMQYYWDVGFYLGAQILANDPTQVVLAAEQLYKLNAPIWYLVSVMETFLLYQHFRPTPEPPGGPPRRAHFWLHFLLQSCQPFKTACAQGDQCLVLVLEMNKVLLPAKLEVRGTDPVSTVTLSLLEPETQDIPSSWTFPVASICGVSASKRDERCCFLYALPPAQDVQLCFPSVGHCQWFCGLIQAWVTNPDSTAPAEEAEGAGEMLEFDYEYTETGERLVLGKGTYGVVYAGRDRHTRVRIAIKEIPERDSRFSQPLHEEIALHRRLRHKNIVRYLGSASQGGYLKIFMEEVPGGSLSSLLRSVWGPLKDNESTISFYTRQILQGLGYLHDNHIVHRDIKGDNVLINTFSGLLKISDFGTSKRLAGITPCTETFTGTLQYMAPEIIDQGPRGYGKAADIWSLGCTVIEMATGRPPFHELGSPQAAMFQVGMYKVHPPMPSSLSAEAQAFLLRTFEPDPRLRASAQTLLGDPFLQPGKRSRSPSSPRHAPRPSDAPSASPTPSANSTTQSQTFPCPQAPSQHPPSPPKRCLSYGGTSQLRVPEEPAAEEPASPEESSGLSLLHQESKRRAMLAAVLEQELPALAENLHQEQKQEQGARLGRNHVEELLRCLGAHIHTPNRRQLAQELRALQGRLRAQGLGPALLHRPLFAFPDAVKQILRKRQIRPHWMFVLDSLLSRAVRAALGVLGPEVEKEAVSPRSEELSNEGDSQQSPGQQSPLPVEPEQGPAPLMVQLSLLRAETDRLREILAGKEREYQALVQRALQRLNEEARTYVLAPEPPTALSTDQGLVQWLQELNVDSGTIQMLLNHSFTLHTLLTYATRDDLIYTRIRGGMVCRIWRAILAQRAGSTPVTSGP
T1 sequence (P14616 27-1297): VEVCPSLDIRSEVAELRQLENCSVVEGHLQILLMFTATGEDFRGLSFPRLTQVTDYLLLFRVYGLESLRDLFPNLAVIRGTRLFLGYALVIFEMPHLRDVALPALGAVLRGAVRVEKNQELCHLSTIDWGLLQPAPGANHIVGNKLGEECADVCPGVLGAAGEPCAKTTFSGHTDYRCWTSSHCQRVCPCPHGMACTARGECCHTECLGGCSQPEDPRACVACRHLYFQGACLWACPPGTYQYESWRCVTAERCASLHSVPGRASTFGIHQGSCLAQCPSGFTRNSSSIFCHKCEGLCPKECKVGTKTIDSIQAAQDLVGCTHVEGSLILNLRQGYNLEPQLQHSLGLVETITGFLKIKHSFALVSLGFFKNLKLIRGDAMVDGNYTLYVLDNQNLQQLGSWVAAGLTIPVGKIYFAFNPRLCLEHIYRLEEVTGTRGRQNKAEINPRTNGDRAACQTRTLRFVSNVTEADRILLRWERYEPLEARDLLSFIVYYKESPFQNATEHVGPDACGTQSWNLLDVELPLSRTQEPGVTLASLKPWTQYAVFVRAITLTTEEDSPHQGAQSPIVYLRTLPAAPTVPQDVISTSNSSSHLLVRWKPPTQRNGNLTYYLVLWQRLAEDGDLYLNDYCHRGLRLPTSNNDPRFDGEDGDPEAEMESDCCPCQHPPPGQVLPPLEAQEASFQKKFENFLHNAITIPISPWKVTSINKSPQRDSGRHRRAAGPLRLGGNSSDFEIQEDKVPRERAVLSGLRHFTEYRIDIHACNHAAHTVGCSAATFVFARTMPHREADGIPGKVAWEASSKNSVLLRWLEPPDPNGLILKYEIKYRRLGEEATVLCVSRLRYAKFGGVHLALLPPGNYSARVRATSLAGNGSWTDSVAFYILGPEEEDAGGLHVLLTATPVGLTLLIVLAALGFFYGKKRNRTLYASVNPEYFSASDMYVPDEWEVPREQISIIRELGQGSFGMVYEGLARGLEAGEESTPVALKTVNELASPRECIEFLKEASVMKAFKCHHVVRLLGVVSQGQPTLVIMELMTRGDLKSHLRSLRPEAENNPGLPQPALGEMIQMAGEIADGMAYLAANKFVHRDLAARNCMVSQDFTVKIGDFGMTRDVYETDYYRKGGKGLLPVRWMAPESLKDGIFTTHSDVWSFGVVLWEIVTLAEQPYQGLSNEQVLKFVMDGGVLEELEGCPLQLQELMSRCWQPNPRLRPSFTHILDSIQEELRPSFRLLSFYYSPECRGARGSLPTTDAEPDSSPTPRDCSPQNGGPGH
T13 sequence (P23458 875-1154 limits assumed): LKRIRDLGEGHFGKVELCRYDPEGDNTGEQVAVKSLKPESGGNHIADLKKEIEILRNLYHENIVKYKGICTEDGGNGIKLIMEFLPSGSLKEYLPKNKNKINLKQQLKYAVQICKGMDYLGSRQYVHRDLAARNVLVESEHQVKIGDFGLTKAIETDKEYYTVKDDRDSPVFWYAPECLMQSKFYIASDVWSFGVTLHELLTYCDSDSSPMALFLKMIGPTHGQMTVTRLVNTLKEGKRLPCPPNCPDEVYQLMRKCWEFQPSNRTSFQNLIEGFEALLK
T2 sequence (P06213 28-1382): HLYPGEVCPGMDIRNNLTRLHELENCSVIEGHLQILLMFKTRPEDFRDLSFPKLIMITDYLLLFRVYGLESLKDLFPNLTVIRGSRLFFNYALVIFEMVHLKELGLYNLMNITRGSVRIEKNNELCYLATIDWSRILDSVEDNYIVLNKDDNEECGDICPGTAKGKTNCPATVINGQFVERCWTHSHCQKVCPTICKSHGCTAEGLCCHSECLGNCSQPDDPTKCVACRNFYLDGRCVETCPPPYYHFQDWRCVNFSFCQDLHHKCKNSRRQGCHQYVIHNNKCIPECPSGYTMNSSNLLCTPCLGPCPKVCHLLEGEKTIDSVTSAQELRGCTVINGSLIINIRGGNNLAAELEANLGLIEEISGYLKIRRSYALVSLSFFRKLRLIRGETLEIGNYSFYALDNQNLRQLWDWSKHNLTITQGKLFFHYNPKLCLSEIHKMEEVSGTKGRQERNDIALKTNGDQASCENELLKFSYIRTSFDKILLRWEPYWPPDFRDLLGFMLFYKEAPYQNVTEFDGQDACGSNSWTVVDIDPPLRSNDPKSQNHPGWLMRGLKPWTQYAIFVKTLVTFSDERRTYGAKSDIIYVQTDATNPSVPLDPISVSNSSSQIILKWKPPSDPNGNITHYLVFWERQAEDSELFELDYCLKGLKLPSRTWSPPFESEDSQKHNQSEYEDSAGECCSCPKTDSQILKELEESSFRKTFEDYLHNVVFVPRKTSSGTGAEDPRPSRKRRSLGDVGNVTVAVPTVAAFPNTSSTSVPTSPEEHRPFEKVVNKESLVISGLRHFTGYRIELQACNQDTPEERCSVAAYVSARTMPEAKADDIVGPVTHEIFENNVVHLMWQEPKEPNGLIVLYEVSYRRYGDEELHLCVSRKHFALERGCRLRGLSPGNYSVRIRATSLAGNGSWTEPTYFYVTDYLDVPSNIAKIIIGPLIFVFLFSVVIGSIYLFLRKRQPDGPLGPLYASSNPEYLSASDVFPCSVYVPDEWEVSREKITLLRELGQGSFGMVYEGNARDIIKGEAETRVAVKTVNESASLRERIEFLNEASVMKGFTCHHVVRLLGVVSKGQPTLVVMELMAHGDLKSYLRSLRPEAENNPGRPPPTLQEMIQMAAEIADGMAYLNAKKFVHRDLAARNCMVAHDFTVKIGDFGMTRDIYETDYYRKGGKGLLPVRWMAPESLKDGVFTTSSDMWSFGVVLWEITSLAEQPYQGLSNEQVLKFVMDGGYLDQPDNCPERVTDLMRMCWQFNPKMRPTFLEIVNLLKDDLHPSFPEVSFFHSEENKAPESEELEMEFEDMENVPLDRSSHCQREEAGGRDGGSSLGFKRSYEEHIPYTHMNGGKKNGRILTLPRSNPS
T3 sequence (P41240 whole entry): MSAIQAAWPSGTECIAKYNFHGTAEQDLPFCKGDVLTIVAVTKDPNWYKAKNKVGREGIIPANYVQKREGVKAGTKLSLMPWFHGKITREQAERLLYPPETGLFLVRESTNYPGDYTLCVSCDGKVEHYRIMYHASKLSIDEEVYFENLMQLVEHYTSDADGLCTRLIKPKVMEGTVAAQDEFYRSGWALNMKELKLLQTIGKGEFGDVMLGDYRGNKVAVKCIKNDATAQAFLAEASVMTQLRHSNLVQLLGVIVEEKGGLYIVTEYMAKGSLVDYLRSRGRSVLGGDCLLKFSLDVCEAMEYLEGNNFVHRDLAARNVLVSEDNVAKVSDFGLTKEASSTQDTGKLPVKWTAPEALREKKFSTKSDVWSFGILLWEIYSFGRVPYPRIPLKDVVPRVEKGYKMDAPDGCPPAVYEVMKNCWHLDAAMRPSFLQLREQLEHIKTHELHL

## COc1ccc(OC)c(-n2nnc(S(=O)(=O)c3ccc(C(C)(C)C)cc3)c2C)c1 [SPA70]
Hepa 1-6 cells
  Cytotoxicity: marginal cytotoxicity
[1]
  Agonistic or antagonistic activity against other human nuclear receptors: no detectable agonistic or antagonistic activity
INSRR
  inhibition at 10 µM: 0%
INSR
  inhibition at 10 µM: 0%
CSK
  %Inhibition by 10 μM SPA70: 9%
CAMK2D
  inhibition at 10 µM: 0%
[2]
  %Inhibition by 10 μM SPA70: 33%
ASK2
  inhibition at 10 µM: 0%
SIK
  %Inhibition by 10 μM SPA70: 0%
PIP5K2C
  inhibition at 10 µM: 10%
CDK4-cyclinD1
  inhibition at 10 µM: 20%
MELK
  inhibition at 10 µM: 3%
[3]
  inhibition at 10 µM: 14%
TAOK3
  inhibition at 10 µM: 2%
[4]
  %Inhibition by 10 μM SPA70: 19%
RIOK3
  inhibition at 10 µM: 24%
ANKK1
  inhibition at 10 µM: 0%
RAF1
  inhibition at 10 µM: 19%
AKT1
  inhibition at 10 µM: 0%
C57BL/6 mice
  Mouse body weight: increase in mouse body weight
LS1034 cells
  Sensitization of LS1034 cells to paclitaxel and vincristine: sensitized LS1034 cells to both paclitaxel and vincristine
[5]
  Effect on induction of hPXR transcriptional target genes by rifampicin, SR12813 and T090137: blocked their induction
hCAR
  Effect on basal activity of CAR: very weak CAR inverse agonist; also recorded: very weakly inhibited the basal activity
HepG2 cells
  Cytotoxicity: marginal cytotoxicity
HEK293 cells
  Cytotoxicity: marginal cytotoxicity
